Where “and” joins values, the source holds several entries; their conditions need not be identical. Equal entries are not always repeated. Toxic doses and inconclusive results are not listed.
Tested on: BDF1 mice, P388 leukemia ip, median survival T/C
Experiment: NCI In Vivo Anticancer Drug Screen. Data for tumor model P388 Leukemia (intraperitoneal) in B6D2F1 (BDF1) mice
Settings: endpoint: median survival time, higher = longer survival
Outline: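 T/C = treated-group survival ÷ vehicle-control survival; tumour transplanted into mice before dosing.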

## CO[C@H](C(=O)[C@@H](O)[C@@H](C)O)[C@@H]1Cc2cc3cc(OC4CC(OC5CC(O)C(O)C(C)O5)C(O)C(C)O4)c(C)c(O)c3c(O)c2C(=O)[C@H]1OC1CC(OC2CC(OC3CC(C)(O)C(O)C(C)O3)C(O)C(C)O2)C(O)C(C)O1 (some centres not stated)
dose: 0.05 mg/kg/injection, schedule: Q01DX009 (ip), vehicle: water
  T/C: 120 % of control and 110 % of control
dose: 0.06 mg/kg/injection, schedule: Q01DX001 (ip), vehicle: water
  T/C: 100 % of control
dose: 0.1 mg/kg/injection, schedule: Q01DX015 (ip), vehicle: water
  T/C: 100 % of control
dose: 0.12 mg/kg/injection, schedule: Q01DX009 (ip), vehicle: clinical formulation
  T/C: 114 % of control
dose: 0.12 mg/kg/injection, schedule: Q#A X005 (ip), vehicle: saline
  T/C: 118 % of control
dose: 0.13 mg/kg/injection, schedule: Q01DX001 (ip), vehicle: water
  T/C: 100 % of control
dose: 0.13 mg/kg/injection, schedule: Q01DX009 (ip), vehicle: saline
  T/C: 122 % of control
dose: 0.19 mg/kg/injection, schedule: Q01DX010 (ip), vehicle: saline
  T/C: 110 % of control
dose: 0.2 mg/kg/injection, schedule: Q01DX009 (ip), vehicle: water
  T/C: 150 % of control
dose: 0.25 mg/kg/injection, schedule: Q01DX001 (im), vehicle: water
  T/C: 100 % of control
dose: 0.25 mg/kg/injection, schedule: Q01DX001 (ip), vehicle: water
  T/C: 104 % of control
dose: 0.25 mg/kg/injection, schedule: Q01DX005 (ip), vehicle: saline
  T/C: 100 % of control
dose: 0.25 mg/kg/injection, schedule: Q01DX009 (ip), vehicle: clinical formulation
  T/C: 121 % of control
dose: 0.25 mg/kg/injection, schedule: Q01DX010 (oral), vehicle: saline
  T/C: 100 % of control
dose: 0.25 mg/kg/injection, schedule: Q01DX015 (ip), vehicle: water
  T/C: 115 % of control
dose: 0.35 mg/kg/injection, schedule: Q01DX009 (ip), vehicle: water
  T/C: 150 % of control
dose: 0.5 mg/kg/injection, schedule: Q01DX001 (im), vehicle: water
  T/C: 95 % of control
dose: 0.5 mg/kg/injection, schedule: Q01DX001 (ip), vehicle: saline
  T/C: 100 % of control
dose: 0.5 mg/kg/injection, schedule: Q01DX001 (ip), vehicle: water
  T/C: 110 % of control
dose: 0.5 mg/kg/injection, schedule: Q01DX005 (ip), vehicle: saline
  T/C: 100 % of control
dose: 0.5 mg/kg/injection, schedule: Q01DX009 (ip), vehicle: water
  T/C: 150 % of control
dose: 0.5 mg/kg/injection, schedule: Q01DX010 (oral), vehicle: saline
  T/C: 100 % of control
dose: 0.5 mg/kg/injection, schedule: Q02DX005 (ip), vehicle: water
  T/C: 90 % of control
dose: 0.5 mg/kg/injection, schedule: Q04DX003 (ip), vehicle: saline
  T/C: 100 % of control
dose: 0.54 mg/kg/injection, schedule: Q01DX005 (ip), vehicle: water
  T/C: 175 % of control
dose: 0.65 mg/kg/injection, schedule: Q01DX009 (ip), vehicle: water
  T/C: 95 % of control
dose: 0.65 mg/kg/injection, schedule: Q04DX003 (ip), vehicle: water
  T/C: 115 % of control
dose: 0.75 mg/kg/injection, schedule: Q01DX010 (ip), vehicle: water
  T/C: 118 % of control
dose: 1.0 mg/kg/injection, schedule: Q01DX001 (im), vehicle: water
  T/C: 108 % of control
dose: 1.0 mg/kg/injection, schedule: Q01DX001 (ip), vehicle: saline
  T/C: 100 % of control and 109 % of control
dose: 1.0 mg/kg/injection, schedule: Q01DX009 (ip), vehicle: clinical formulation
  T/C: 191 % of control
dose: 1.0 mg/kg/injection, schedule: Q01DX009 (ip), vehicle: saline
  T/C: 94 % of control and 95 % of control
dose: 1.0 mg/kg/injection, schedule: Q01DX010 (oral), vehicle: saline
  T/C: 100 % of control
dose: 1.0 mg/kg/injection, schedule: Q04DX003 (ip), vehicle: saline
  T/C: 91 % of control and 118 % of control
dose: 1.08 mg/kg/injection, schedule: Q04DX003 (ip), vehicle: water
  T/C: 113 % of control
dose: 1.5 mg/kg/injection, schedule: Q01DX010 (ip), vehicle: saline
  T/C: 180 % of control
dose: 1.5 mg/kg/injection, schedule: Q01DX010 (oral), vehicle: water
  T/C: 91 % of control
dose: 1.8 mg/kg/injection, schedule: Q04DX003 (ip), vehicle: water
  T/C: 103 % of control
dose: 2.0 mg/kg/injection, schedule: Q01DX001 (ip), vehicle: saline
  T/C: 118 % of control
dose: 2.0 mg/kg/injection, schedule: Q01DX009 (ip), vehicle: saline
  T/C: 31 % of control
dose: 2.0 mg/kg/injection, schedule: Q01DX010 (oral), vehicle: saline
  T/C: 100 % of control
dose: 2.0 mg/kg/injection, schedule: Q01DX010 (oral), vehicle: water
  T/C: 91 % of control
dose: 2.5 mg/kg/injection, schedule: Q01DX010 (oral), vehicle: water
  T/C: 91 % of control
dose: 50.0 mg/kg/injection, schedule: Q01DX010 (ip), vehicle: water
  T/C: 100 % of control
dose: 7.5 micrograms/kg/injection, schedule: Q03HX008 (ip), vehicle: saline
  T/C: 100 % of control
dose: 7.5 micrograms/kg/injection, schedule: Q04DX024 (ip), vehicle: saline
  T/C: 95 % of control
dose: 63.0 micrograms/kg/injection, schedule: Q01DX010 (ip), vehicle: saline
  T/C: 109 % of control
dose: 94.0 micrograms/kg/injection, schedule: Q01DX010 (ip), vehicle: saline
  T/C: 100 % of control
dose: 125.0 micrograms/kg/injection, schedule: Q01DX010 (ip), vehicle: saline
  T/C: 118 % of control
dose: 188.0 micrograms/kg/injection, schedule: Q01DX010 (ip), vehicle: saline
  T/C: 113 % of control
dose: 375.0 micrograms/kg/injection, schedule: Q01DX010 (ip), vehicle: saline
  T/C: 113 % of control

## C=CC(=O)NC12CC3CC(CC(C3)C1)C2
dose: 100.0 mg/kg/injection, schedule: Q04DX003 (ip), vehicle: saline with Tween-80
  T/C: 95 % of control
dose: 200.0 mg/kg/injection, schedule: Q04DX003 (ip), vehicle: saline with Tween-80
  T/C: 95 % of control

## CCOC(=O)C(C#N)(CC)C1=CCCCC1 (configuration not stated)
dose: 100.0 mg/kg/injection, schedule: Q01DX009 (ip), vehicle: Klucel (hydroxypropylcellulose) (HPC)
  T/C: 108 % of control
dose: 100.0 mg/kg/injection, schedule: Q04DX003 (ip), vehicle: Klucel (hydroxypropylcellulose) (HPC)
  T/C: 109 % of control
dose: 200.0 mg/kg/injection, schedule: Q01DX009 (ip), vehicle: Klucel (hydroxypropylcellulose) (HPC)
  T/C: 100 % of control
dose: 200.0 mg/kg/injection, schedule: Q04DX003 (ip), vehicle: Klucel (hydroxypropylcellulose) (HPC)
  T/C: 100 % of control
dose: 400.0 mg/kg/injection, schedule: Q01DX009 (ip), vehicle: Klucel (hydroxypropylcellulose) (HPC)
  T/C: 104 % of control
dose: 400.0 mg/kg/injection, schedule: Q04DX003 (ip), vehicle: Klucel (hydroxypropylcellulose) (HPC)
  T/C: 122 % of control

## C=C(C)C(=O)OC1CC2(C)OC2CC(OC(C)=O)/C(C)=C/C2OC(=O)C(=C)C21 (configuration not stated)
dose: 11.25 mg/kg/injection, schedule: Q01DX009 (ip), vehicle: saline
  T/C: 118 % of control

## O=C(Nc1ccc(NC(=O)c2ccccc2)c(Sc2ccccc2)c1Sc1ccccc1)c1ccccc1
dose: 100.0 mg/kg/injection, schedule: Q01DX001 (ip), vehicle: saline with Tween-80
  T/C: 90 % of control
dose: 400.0 mg/kg/injection, schedule: Q01DX001 (ip), vehicle: saline with Tween-80
  T/C: 100 % of control

## CS(=O)(=O)OCCNC[C@@H](O)[C@@H](O)CNCCOS(C)(=O)=O
dose: 0.17 mg/kg/injection, schedule: Q04DX003 (ip), vehicle: saline
  T/C: 121 % of control
dose: 0.26 mg/kg/injection, schedule: Q04DX003 (ip), vehicle: saline
  T/C: 117 % of control
dose: 0.4 mg/kg/injection, schedule: Q04DX003 (ip), vehicle: saline
  T/C: 154 % of control
dose: 0.6 mg/kg/injection, schedule: Q04DX003 (ip), vehicle: saline
  T/C: 170 % of control
dose: 0.92 mg/kg/injection, schedule: Q04DX003 (ip), vehicle: saline
  T/C: 175 % of control
dose: 1.3 mg/kg/injection, schedule: Q04DX003 (ip), vehicle: saline
  T/C: 175 % of control
dose: 2.1 mg/kg/injection, schedule: Q04DX003 (ip), vehicle: saline
  T/C: 186 % of control
dose: 3.1 mg/kg/injection, schedule: Q04DX003 (ip), vehicle: saline
  T/C: 168 % of control
dose: 11.0 mg/kg/injection, schedule: Q04DX003 (ip), vehicle: saline
  T/C: 200 % of control
dose: 16.0 mg/kg/injection, schedule: Q04DX003 (ip), vehicle: saline
  T/C: 243 % of control
dose: 33.0 mg/kg/injection, schedule: Q04DX003 (ip), vehicle: saline
  T/C: 300 % of control and 118 % of control

## CC(C)C1=C(O)C2=C(C(=O)C1=O)C1(C)CCCC(C)(C)C1CC2O (configuration not stated)
dose: 2.0 mg/kg/injection, schedule: Q01DX010 (ip), vehicle: carboxymethylcellulose (CMC)
  T/C: 100 % of control
dose: 5.0 mg/kg/injection, schedule: Q01DX010 (ip), vehicle: carboxymethylcellulose (CMC)
  T/C: 95 % of control
dose: 10.0 mg/kg/injection, schedule: Q01DX010 (ip), vehicle: carboxymethylcellulose (CMC)
  T/C: 90 % of control
dose: 20.0 mg/kg/injection, schedule: Q01DX010 (ip), vehicle: carboxymethylcellulose (CMC)
  T/C: 105 % of control
